{"source": "patent US20190315823A1", "about": "“SMALL CATIONIC ANTI-BIOFILM AND IDR PEPTIDES” (priority 2013, published 2019)", "key": {"[1]": {"system": "human peripheral blood mononuclear cells", "format": "cell-based", "description": "FIG. 18. Lack of cytotoxicity of immunomodulatory peptides against human peripheral blood mononuclear cells as determined by the low release of cytosolic lactate dehydrogenase.\nVenous blood (20 ml) from healthy volunteers was collected in Vacutainer® collection tubes containing sodium heparin as an anticoagulant (Becton Dickinson, Mississauga, ON) in accordance with UBC ethical approval and guidelines. Blood was diluted 1:1 with complete RPMI 1640 medium and separated by centrifugation over a Ficoll-Paque® Plus (Amersham Biosciences, Piscataway, N.J., USA) density gradient. White blood cells were isolated from the buffy coat, washed twice in RPMI 1640 complete medium, and the number of peripheral blood mononuclear cells (PBMC) was determined by Trypan blue exclusion. PBMC (5×10^5) were seeded into 12-well tissue culture dishes (Falcon; Becton Dickinson) at 0.75 to 1×10^6 cells/ml at 37° C. in 5% CO2. The above conditions were chosen to mimic conditions for circulating blood monocytes entering tissues at the site of infection via extravasation.\nFollowing incubation of the cells under various treatment regimens, the tissue culture supernatants were centrifuged at 1000×g for 5 min, then at 10,000×g for 2 min to obtain cell-free samples. […]\nCytotoxicity was assessed using the Lactate dehydrogenase assay. […] Amount of colour formed is detected as increased absorbance measured at […]. […]"}, "[2]": {"system": "Pseudomonas aeruginosa PA14 and PAO1 and Burkholderia cenocepacia", "experiment": "swarming and surfing motility", "format": "cell-based", "excerpt": "Motility is strongly involved in the virulence of bacteria since it plays an important role in the attachment of bacteria to surfaces, including those in the body and on indwelling medical devices, and in colonization of these surfaces and biofilm formation. P. aeruginosa is known to utilize at least 4 different types of motility: (a) flagellum-mediated swimming in aqueous environments and at low agar concentrations (<0.3% agar), (b) type IV pilus-mediated twitching on solid surfaces or interfaces, (c) swarming on semi-solid media (0.5-0.7% agar) in poor nitrogen (N) sources such as amino acids (AA) and (d) surfing on low agar concentrations containing mucin.\nSwarming motility is a social phenomenon (a complex adaptation) involving the coordinated and rapid movement of bacteria across a semi-solid (viscous) surface, and is widespread among flagellated pathogenic bacteria. […]\nThis was independent of bacterial killing (antimicrobial peptide action measured by MIC) since these peptides were able to inhibit the swarming of Burkholderia cenocepacia, which as mentioned above is completely resistant to all cationic antimicrobial peptides due to its altered outer membrane."}, "S. aureus biofilm": {"system": "S. aureus biofilm", "format": "cell-based", "details": "concentration that reduced biofilm growth by 50%", "description": "(§1) Methods of assessment of anti-biofilm activity—Biofilm formation was initially analyzed using a static abiotic solid surface assay as described elsewhere (de la Fuente-Nunez et al., 2012). […] Planktonic cells were removed, biofilm cells adhering to the side of the tubes were stained with crystal violet, and absorbance at 595 nm was measured using a microtiter plate reader (Bio-Tek Instruments Inc., United States). Some peptides were screened against two Gram negative organisms, P. aeruginosa and K. pneumoniae using a Bioflux apparatus (AutoMate Scientific, Berkeley, Calif.; http://www.autom8.com/bioflux_biofilm.html), which allows for the high-throughput, real-time analysis of biofilms."}, "P. aeruginosa biofilm": {"system": "P. aeruginosa biofilm", "format": "cell-based", "details": "concentration that reduced biofilm growth by 50%", "description": "as §1"}, "[3]": {"system": "Klebsiella pneumoniae (Kp) biofilm", "format": "cell-based", "details": "peptide 10 μg/ml", "description": "Methods of assessment of anti-biofilm activity—Biofilm formation was initially analyzed using a static abiotic solid surface assay as described elsewhere (de la Fuente-Nunez et al., 2012). Dilutions (1/100) of overnight cultures were incubated in BM2 biofilm-adjusted medium [62 mM potassium phosphate buffer (pH 7), 7 mM (NH4)2SO4, 2 mM MgSO4, 10 μM FeSO4, 0.4% (wt/vol) glucose, 0.5% (wt/vol) Casamino Acids], or a nutrient medium such as Luria Broth, in polypropylene microtiter plates (Falcon, United States) in the absence (control) or presence of peptide. Peptide was added at time zero (prior to adding the diluted, overnight cultures) in varying concentrations, and the decrease in biofilm formation was recorded at 22-46 h for most bacteria. Planktonic cells were removed, biofilm cells adhering to the side of the tubes were stained with crystal violet, and absorbance at 595 nm was measured using a microtiter plate reader (Bio-Tek Instruments Inc., United States). Some peptides were screened against two Gram negative organisms, P. aeruginosa and K. pneumoniae using a Bioflux apparatus (AutoMate Scientific, Berkeley, Calif.; http://www.autom8.com/bioflux_biofilm.html), which allows for the high-throughput, real-time analysis of biofilms."}, "C. elegans": {"system": "C. elegans", "experiment": "C. elegans survival, uninfected (peptide toxicity)", "details": "peptide 20 μg/ml", "description": "The C. elegans survival assay was carried out as previously described (Brackman et al., 2011). […] 0.5 ml of this suspension of nematodes was transferred to the wells of a 24-well microtiter plate. An overnight bacterial culture was centrifuged, resuspended in the assay medium, and standardized to 10^8 CFU/ml. Next, 250 μl of this standardized suspension were added to each well, while 250 μl of sterile medium was added to the […]. Peptides were added to the test wells at a final concentration of 20 μg/ml. The assay plates were incubated at 25° C. for up to 2 days. The fraction of dead worms was determined by counting the number of dead worms and the total number of worms in each well, using a dissecting microscope. Peptides were tested at least four times in each assay, and each assay was repeated at least three times (n≥12)."}, "P. aeruginosa biofilms": {"system": "P. aeruginosa biofilms", "details": "compound alone; P. aeruginosa", "description": "Peptides and various conventional antibiotics were analyzed by checkerboard titration into microtiter trays using CLSI methods (Wiegand, I., K. Hilpert, and R. E. W. Hancock. 2008. Nature Protocols 3:163-175), bacteria added and, after overnight incubation at 37° C., the residual biofilm assessed by the crystal violet method mentioned in the body of the grant, with an A595 of 0.2 considered as 100% biofilm inhibition. The effects of the peptide in reducing the minimal biofilm inhibitory concentration (MBIC) of the antibiotic and vice versa were assessed using the Fractional Inhibitory Concentration (FIC) method whereby ΣFTC=FICA+FICB=(CA/MICA)+(CB/MICB), where MBICA and MBICB are the MBICs of peptide A and antibiotic B alone, respectively, and CA and CB (expressed in μg/ml) are the MICs of the drugs in combination. This conventional clinical microbiology assay is interpreted as follows"}, "G. mellonella": {"system": "G. mellonella", "experiment": "G. mellonella survival, uninfected (peptide toxicity)", "format": "in vivo", "details": "peptide 20 μg/10 μl", "description": "In brief, prior to injection in G. mellonella, bacterial cells were washed with PBS and then diluted to either 10^4 or 10^5 CFU per 10 μl. A Hamilton syringe was used to inject 10 μl in the G. mellonella last left proleg. The peptides (20 μg/10 μl) were administered by injecting 10 μl into a different proleg within 1 h after injecting the bacteria. Two control groups were used: the first group included uninfected larvae injected with PBS to monitor killing due to physical trauma; the second group included uninfected larvae receiving no treatment at all. Results from experiments in which one or more larvae in either control group died were discarded and the experiments were repeated. To evaluate the toxicity of the peptides, uninfected larvae were injected with peptides. Larvae were placed in the dark at 37° C. and were scored as dead or alive 24 h and 48 h post-infection. […] At least 20 larvae were injected for each treatment. For each treatment, data from at least six independent experiments were combined."}, "[4]": {"system": "methicillin resistant S. aureus (Sa) biofilm", "format": "cell-based, Staphylococcus aureus", "details": "peptide 5 μg/ml"}, "[5]": {"system": "Pseudomonas aeruginosa (Pa) biofilm", "experiment": "static abiotic solid surface (microtiter, crystal violet) / Bioflux biofilm inhibition screen", "format": "cell-based", "details": "peptide 10 μg/ml", "method_in_brief": "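Overnight cultures diluted 1/100 were grown in polypropylene microtiter plates in BM2 medium (pH 7, 0.4% glucose, 0.5% Casamino Acids) or Luria Broth, with peptide at varying concentrations added at time zero. After 22-46 h, adherent biofilm was stained with crystal violet and read at 595 nm. Selected peptides were also screened under flow in a Bioflux system.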"}, "P. aeruginosa": {"system": "P. aeruginosa", "details": "de la Fuente-Núñez 2012; cited from earlier work"}, "[6]": {"system": "Pseudomonas aeruginosa (Pa) biofilm", "details": "P. aeruginosa; de la Fuente-Núñez 2012; cited from earlier work"}}, "note": "Peptide text beside a SMILES is read from it.", "data": [{"compound": "CC[C@H](C)[C@H](NC(=O)[C@H](CC(C)C)NC(=O)[C@@H](NC(=O)[C@H](CCCNC(=N)N)NC(=O)[C@@H](NC(=O)[C@@H](NC(=O)[C@H](CCCNC(=N)N)NC(=O)[C@H](CCCNC(=N)N)NC(=O)[C@@H](N)C(C)C)[C@@H](C)CC)C(C)C)C(C)C)C(=O)N[C@@H](CCCNC(=N)N)C(=O)N[C@@H](Cc1c[nH]c2ccccc12)C(=O)N[C@@H](C)C(N)=O", "note": "[HE8] (H-VRRIVRVLIRWA-NH2)", "values": [{"measurement": "Notes (toxicity)", "setting": "[1]", "value": "Toxic"}]}, {"compound": "polymyxin B", "values": [{"measurement": "swarming motility", "setting": "[2]; low concentrations", "value": "does not have anti-swarming or anti-surfing activity"}, {"measurement": "surfing motility", "setting": "[2]; mucin-containing plates", "value": "does not have anti-swarming or anti-surfing activity"}]}, {"compound": "CC[C@H](C)[C@H](NC(=O)[C@H](CCCNC(=N)N)NC(=O)[C@@H](NC(=O)[C@H](C)NC(=O)[C@@H](NC(=O)[C@@H](NC(=O)[C@H](CC(C)C)NC(=O)[C@H](CCCNC(=N)N)NC(=O)[C@@H](N)C(C)C)[C@@H](C)CC)C(C)C)C(C)C)C(=O)N[C@@H](Cc1c[nH]c2ccccc12)C(=O)N[C@@H](CCCNC(=N)N)C(=O)N[C@@H](CCCNC(=N)N)C(N)=O", "note": "[Peptide 1018] (H-VRLIVAVRIWRR-NH2)", "values": [{"measurement": "MBIC50 S. aureus", "setting": "S. aureus biofilm", "value": 20, "unit": "µg/mL"}, {"measurement": "MBIC50 P. aeruginosa", "setting": "P. aeruginosa biofilm", "value": 2.5, "unit": "µg/mL"}, {"measurement": "% Biofilm Inhibition Kp", "setting": "[3]", "value": 99, "unit": "%"}, {"measurement": "C. elegans survival, No infection", "setting": "C. elegans; 24 h", "value": "97 ± 4", "unit": "%"}, {"measurement": "C. elegans survival, No infection", "setting": "C. elegans; 48 h", "value": "88 ± 9", "unit": "%"}, {"measurement": "Minimal Biofilm Inhibitory Concentration (MBIC)", "setting": "P. aeruginosa biofilms", "value": 24, "unit": "µg/mL"}, {"measurement": "G. mellonella survival, No infection", "setting": "G. mellonella; 24 h", "value": "90 ± 14", "unit": "%"}, {"measurement": "G. mellonella survival, No infection", "setting": "G. mellonella; 48 h", "value": "90 ± 14", "unit": "%"}, {"measurement": "% Biofilm Inhibition Sa", "setting": "[4]", "value": 67, "unit": "%"}, {"measurement": "% Biofilm Inhibition Pa", "setting": "[5]", "value": 99, "unit": "%"}]}, {"compound": "CC[C@H](C)[C@H](NC(=O)[C@H](CCCNC(=N)N)NC(=O)[C@H](Cc1ccccc1)NC(=O)[C@H](CCCNC(=N)N)NC(=O)[C@@H](N)CCCCN)C(=O)N[C@@H](CCCNC(=N)N)C(=O)N[C@H](C(=O)N[C@@H](CCCNC(=N)N)C(=O)N[C@H](C(N)=O)C(C)C)C(C)C", "note": "[Peptide 1037] (H-KRFRIRVRV-NH2; N-terminus assumed)", "values": [{"measurement": "antimicrobial activity MIC", "setting": "P. aeruginosa", "value": 304, "unit": "µg/mL"}, {"measurement": "anti-biofilm activity IC50", "setting": "[6]", "value": 5, "unit": "µg/mL"}]}]}
